Measured values published in US8192962B2, “Processes for detecting toxic substances” (Daikin Industries, Ltd., priority 2001, dated 2012).

Tested on: Mitochondria-located protein genes
Assay: DNA chip mRNA expression in yeast, mitochondria-located protein genes (Table 2)
Assay type: cell-based, Saccharomyces cerevisiae S288C
Settings: cells incubated two hours with the chemical substance
Procedure, shortened: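 S. cerevisiae S288C grown at 25° C in YPD were exposed in log phase for two hours to one toxic chemical at a growth-inhibiting, non-lethal concentration; untreated cells served as control. Poly(A) mRNA was reverse-transcribed with Cy3/Cy5-dUTP and hybridized to a whole-genome yeast DNA chip at 65° C for over 12 hours; values are fluorescence ratios versus untreated.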

S=C([S-])NCCNC(=S)[S-].[Zn+2] [(11), zinc N,N′-ethylenebis(dithiocarbamate)]
The level of expressed mRNA in the presence of chemical substance/The level of expressed mRNA in the absence of chemical substance (yeast gene YJR121W): 0.9 | The level of expressed mRNA in the presence of chemical substance/The level of expressed mRNA in the absence of chemical substance (yeast gene YKL003C): 1.7 | The level of expressed mRNA in the presence of chemical substance/The level of expressed mRNA in the absence of chemical substance (yeast gene YKL016C): 1.3 | The level of expressed mRNA in the presence of chemical substance/The level of expressed mRNA in the absence of chemical substance (yeast gene YKL141W): 1.2 | The level of expressed mRNA in the presence of chemical substance/The level of expressed mRNA in the absence of chemical substance (yeast gene YKL142W): 2.0 | The level of expressed mRNA in the presence of chemical substance/The level of expressed mRNA in the absence of chemical substance (yeast gene YKL148C): 1.5 | The level of expressed mRNA in the presence of chemical substance/The level of expressed mRNA in the absence of chemical substance (yeast gene YKL170W): 0.7 | The level of expressed mRNA in the presence of chemical substance/The level of expressed mRNA in the absence of chemical substance (yeast gene YKL194C): 1.6 | The level of expressed mRNA in the presence of chemical substance/The level of expressed mRNA in the absence of chemical substance (yeast gene YKR066C): 1.3 | The level of expressed mRNA in the presence of chemical substance/The level of expressed mRNA in the absence of chemical substance (yeast gene YLL041C): 1.3 | The level of expressed mRNA in the presence of chemical substance/The level of expressed mRNA in the absence of chemical substance (yeast gene YLR038C): 1.4 | The level of expressed mRNA in the presence of chemical substance/The level of expressed mRNA in the absence of chemical substance (yeast gene YLR259C): 3.0 | The level of expressed mRNA in the presence of chemical substance/The level of expressed mRNA in the absence of chemical substance (yeast gene YLR295C): 1.3 | The level of expressed mRNA in the presence of chemical substance/The level of expressed mRNA in the absence of chemical substance (yeast gene YLR304C): 1.6 | The level of expressed mRNA in the presence of chemical substance/The level of expressed mRNA in the absence of chemical substance (yeast gene YLR348C): 1.3 | The level of expressed mRNA in the presence of chemical substance/The level of expressed mRNA in the absence of chemical substance (yeast gene YLR395C): 1.5 | The level of expressed mRNA in the presence of chemical substance/The level of expressed mRNA in the absence of chemical substance (yeast gene YML054C): 1.4 | The level of expressed mRNA in the presence of chemical substance/The level of expressed mRNA in the absence of chemical substance (yeast gene YML120C): 1.3 | The level of expressed mRNA in the presence of chemical substance/The level of expressed mRNA in the absence of chemical substance (yeast gene YML129C): 1.2 | The level of expressed mRNA in the presence of chemical substance/The level of expressed mRNA in the absence of chemical substance (yeast gene YMR023C): 0.8 | The level of expressed mRNA in the presence of chemical substance/The level of expressed mRNA in the absence of chemical substance (yeast gene YMR035W): 1.5 | The level of expressed mRNA in the presence of chemical substance/The level of expressed mRNA in the absence of chemical substance (yeast gene YMR083W): 1.6 | The level of expressed mRNA in the presence of chemical substance/The level of expressed mRNA in the absence of chemical substance (yeast gene YMR089C): 1.3 | The level of expressed mRNA in the presence of chemical substance/The level of expressed mRNA in the absence of chemical substance (yeast gene YMR152W): 1.2 | The level of expressed mRNA in the presence of chemical substance/The level of expressed mRNA in the absence of chemical substance (yeast gene YMR203W): 2.3 | The level of expressed mRNA in the presence of chemical substance/The level of expressed mRNA in the absence of chemical substance (yeast gene YMR267W): 1.0 | The level of expressed mRNA in the presence of chemical substance/The level of expressed mRNA in the absence of chemical substance (yeast gene YNL055C): 1.9 | The level of expressed mRNA in the presence of chemical substance/The level of expressed mRNA in the absence of chemical substance (yeast gene YNL071W): 1.6 | The level of expressed mRNA in the presence of chemical substance/The level of expressed mRNA in the absence of chemical substance (yeast gene YNL073W): 1.1 | The level of expressed mRNA in the presence of chemical substance/The level of expressed mRNA in the absence of chemical substance (yeast gene YNL104C): 2.1 | The level of expressed mRNA in the presence of chemical substance/The level of expressed mRNA in the absence of chemical substance (yeast gene YNL256W): 0.6 | The level of expressed mRNA in the presence of chemical substance/The level of expressed mRNA in the absence of chemical substance (yeast gene YOL096C): 1.2 | The level of expressed mRNA in the presence of chemical substance/The level of expressed mRNA in the absence of chemical substance (yeast gene YOR020C): 2.5 | The level of expressed mRNA in the presence of chemical substance/The level of expressed mRNA in the absence of chemical substance (yeast gene YOR037W): 1.2 | The level of expressed mRNA in the presence of chemical substance/The level of expressed mRNA in the absence of chemical substance (yeast gene YOR100C): 1.4 | The level of expressed mRNA in the presence of chemical substance/The level of expressed mRNA in the absence of chemical substance (yeast gene YOR130C): 0.6 | The level of expressed mRNA in the presence of chemical substance/The level of expressed mRNA in the absence of chemical substance (yeast gene YOR142W): 1.5 | The level of expressed mRNA in the presence of chemical substance/The level of expressed mRNA in the absence of chemical substance (yeast gene YOR150W): 1.0 | The level of expressed mRNA in the presence of chemical substance/The level of expressed mRNA in the absence of chemical substance (yeast gene YOR176W): 1.4 | The level of expressed mRNA in the presence of chemical substance/The level of expressed mRNA in the absence of chemical substance (yeast gene YOR187W): 1.4 | The level of expressed mRNA in the presence of chemical substance/The level of expressed mRNA in the absence of chemical substance (yeast gene YOR316C): 2.4 | The level of expressed mRNA in the presence of chemical substance/The level of expressed mRNA in the absence of chemical substance (yeast gene YPL040C): 0.9 | The level of expressed mRNA in the presence of chemical substance/The level of expressed mRNA in the absence of chemical substance (yeast gene YPL134C): 1.7 | The level of expressed mRNA in the presence of chemical substance/The level of expressed mRNA in the absence of chemical substance (yeast gene YPL135W): 1.3 | The level of expressed mRNA in the presence of chemical substance/The level of expressed mRNA in the absence of chemical substance (yeast gene YPL215W): 1.1 | The level of expressed mRNA in the presence of chemical substance/The level of expressed mRNA in the absence of chemical substance (yeast gene YPL262W): 1.4 | The level of expressed mRNA in the presence of chemical substance/The level of expressed mRNA in the absence of chemical substance (yeast gene YPR024W): 0.9 | The level of expressed mRNA in the presence of chemical substance/The level of expressed mRNA in the absence of chemical substance (yeast gene YPR037C): 0.9 | The level of expressed mRNA in the presence of chemical substance/The level of expressed mRNA in the absence of chemical substance (yeast gene YPR047W): 1.1 | The level of expressed mRNA in the presence of chemical substance/The level of expressed mRNA in the absence of chemical substance (yeast gene YPR134W): 1.3
